[ ]: non-standard residue; d: D form. The star is where a group is joined. Palmitoyl = CCCCCCCCCCCCCCCC(=O)*; NHhexadecyl = CCCCCCCCCCCCCCCCN*; Myristoyl = CCCCCCCCCCCCCC(=O)*; Orn = NCCC[C@H](N)C(=O)O; NHHex = CCCCCCN*
test system: human miRNA145; experiment: miRNA145 inhibition on Human Keratinocyte HaCaT cell line, direct quantification by luminescence; assay type: cell-based; conditions: HaCaT cells, 0.3 mg/ml, 24 hours, normalized with Snord48; mean of 3 experiments for DD14024, one experiment for the others
Experimental: The synthetic peptide candidates are evaluated for the inhibition of human miRNA145 expression level using a direct miRNA145 quantification assay based on luminescence detection in a Human Keratinocyte HaCaT cell line.
HaCat cells (Deutsches Krebsforschungszentrum) are seeded at 3.0×10^4 cells/well in 96-clear wells plates and incubated in a culture medium [(DMEM High Glucose with L-Glutamine (Lonza), supplemented with 10% Fetal Bovine Serum (Cultek)] for 24 hours at 37° C. in a water-saturated atmosphere of 95% air and 5% CO2. Then, the cells with the candidates added at 0.3 mg/ml in the culture medium are treated for 24 hours at 37° C., 95% air and 5% CO2. Cells with culture medium only are treated to the same conditions to provide basal conditions. Each cell culture condition is assayed at least in 6 biological replicates. At the end of the incubation period, the cells are lysed and the relative miRNA145 expression level is quantified by a specific assay kit (QuantiGene™ 2.0 miRNA Assay Kit) following manufacturer's instructions (Affymetrix). Briefly, to capture miRNA145, culture lysates are incubated overnight at 46±1° C. in 96-white well plates with the miRNA145 specific probe set (Capture extenders and Label extenders). As an endogenous expression control, the housekeeping Snord48 is quantified using a specific probe set. Next day, the signal amplification tree is built via sequential hybridization at 46±1° C. of three probes: PreAmplifier, Amplifier and Alkaline Phosphatase Label Probe. Then, the signal is detected by adding a chemiluminescent substrate and using a Microplate Luminometer Reader (Clariostar-BMG LabTech).
The miRNA145 expression level result is normalized with the Snord48 expression level for each cell culture condition and the relative decrease in the miRNA145 expression level is calculated respect to basal control (cells treated with culture medium only). The values represent the mean of 3 independent experiments for DD14024, and for the other candidates, represent the result of one experiment.

Point of comparison: “Myr-Glu-Glu-Met-Arg-Met-Gln-OH (Myristoyl-EEMRMQ-OH; SMILES CCCCCCCCCCCCCC(=O)N[C@@H](CCC(=O)O)C(=O)N[C@@H](CCC(=O)O)C(=O)N[C@@H](CCSC)C(=O)N[C@@H](CCCNC(=N)N)C(=O)N[C@@H](CCSC)C(=O)N[C@@H](CCC(N)=O)C(=O)O) [DD15011]”, “Relative level of miRNA145 respect to basal control (%)” value 73.29 ± 4.37%. Against it:
- Ac-Asn-Glu-Ile-Arg-Val-Gln-OH (Ac-NEIRVQ-OH) [DD15026] — within error, 77.60 ± 5.43%
- Ac-Asp-Gln-Met-Arg-Met-Gln-OH (Ac-DQMRMQ-OH) [DD15053] — lower, 58.64 ± 0.04%
- Ac-Asp-Glu-Met-Arg-Met-Gln-OH (Ac-DEMRMQ-OH) [DD15012] — within error, 71.05 ± 3.82%
- Ac-Gln-Asp-Met-Arg-Met-Gln-NHC6H13 (Ac-QDMRMQ-NHHex; SMILES CCCCCCNC(=O)[C@H](CCC(N)=O)NC(=O)[C@H](CCSC)NC(=O)[C@H](CCCNC(=N)N)NC(=O)[C@H](CCSC)NC(=O)[C@H](CC(=O)O)NC(=O)[C@H](CCC(N)=O)NC(C)=O) [DD15013] — within error, 84.32 ± 6.96%
- Ac-Gln-Asp-Met-Lys-Met-Asn-OH (Ac-QDMKMN-OH) [DD15027] — higher, 78.47 ± 0.74%
- Ac-Gln-Gln-Met-Arg-Met-Gln-OH (Ac-QQMRMQ-OH) [DD15014] — within error, 80.06 ± 3.47%
- Ac-Gln-Glu-Met-Arg-Met-Asn-OH (Ac-QEMRMN-OH) [DD15056] — within error, 72.43 ± 1.39%
- Ac-Gln-Glu-Met-Arg-Met-Gln-NH2 (Ac-QEMRMQ-NH2) [DD14023] — higher, 87.03 ± 2.65%
- Ac-Gln-Glu-Met-Arg-Met-Gln-NHC6H13 (Ac-QEMRMQ-NHHex) [DD15004] — higher, 89.03 ± 5.37%
- Ac-Gln-Glu-Met-Arg-Met-Gln-Thr-NH2 (Ac-QEMRMQT-NH2) [DD15047] — within error, 77.67 ± 9.10%
- Ac-Gln-Glu-Met-Arg-Met-Gln-Tyr-OH (Ac-QEMRMQY-OH) [DD15046] — within error, 74.02 ± 1.98%
- Ac-Gln-Glu-Met-Arg-Met-Gln-Val-Tyr-OH (Ac-QEMRMQVY-OH) [DD15049] — within error, 80.09 ± 7.49%
- Ac-Gln-Glu-Met-Arg-Met-Glu-OH (Ac-QEMRME-OH) [DD15020] — lower, 62.43 ± 0.89%
- Ac-Gln-Glu-Met-Lys-Leu-Gln-OH (Ac-QEMKLQ-OH) [DD15024] — higher, 87.92 ± 1.32%
- Ac-Gln-Glu-Met-Lys-Met-Gln-OH (Ac-QEMKMQ-OH) [DD15017] — higher, 85.50 ± 1.74%
- Ac-Glu-Gln-Met-Arg-Met-Gln-OH (Ac-EQMRMQ-OH) [DD15054] — within error, 72.50 ± 2.88%
- Ac-Glu-Glu-Ile-Arg-Met-Gln-NHC16H33 (Ac-EEIRMQ-NHhexadecyl; SMILES CCCCCCCCCCCCCCCCNC(=O)[C@H](CCC(N)=O)NC(=O)[C@H](CCSC)NC(=O)[C@H](CCCNC(=N)N)NC(=O)[C@@H](NC(=O)[C@H](CCC(=O)O)NC(=O)[C@H](CCC(=O)O)NC(C)=O)[C@@H](C)CC) [DD15023] — within error, 74.48 ± 3.34%
- Ac-Glu-Glu-Met-Arg-Met-Gln-OH (Ac-EEMRMQ-OH) [DD15051] — higher, 92.26 ± 1.61%
- Ac-Pro-Gln-Glu-Met-Arg-Met-Gln-OH (Ac-PQEMRMQ-OH) [DD15045] — higher, 90.71 ± 4.78%
- Ac-Pro-Val-Gln-Glu-Met-Arg-Met-Gln-OH (Ac-PVQEMRMQ-OH) [DD15048] — higher, 89.54 ± 3.79%
- Ac-QEM[Orn]MQ-OH [DD15022] — within error, 75.41 ± 2.25%
- Ac-Ser-Gln-Glu-Met-Arg-Met-Gln-Thr-NH2 (Ac-SQEMRMQT-NH2) [DD15050] — within error, 72.44 ± 3.87%
- H-Gln-Asp-Met-Arg-Met-Asn-NH2 (H-QDMRMN-NH2) [DD15025] — higher, 86.95 ± 0.55%
- H-Gln-Glu-Ile-Arg-Met-Gln-NH2 (H-QEIRMQ-NH2) [DD15016] — higher, 87.63 ± 4.46%
- H-Gln-Glu-Met-Arg-Ile-Gln-NH2 (H-QEMRIQ-NH2) [DD15019] — within error, 67.00 ± 2.89%
- H-Gln-Glu-Met-Arg-Leu-Gln-NH2 (H-QEMRLQ-NH2) [DD15055] — lower, 67.03 ± 0.23%
- H-Gln-Glu-Met-Arg-Met-Gln-OH (H-QEMRMQ-OH) [DD15002] — higher, 89.75 ± 0.69%
- Myr-Gln-Glu-Met-Arg-Met-Gln-NH2 (Myristoyl-QEMRMQ-NH2) [DD15052] — higher, 92.94 ± 1.35%
- Palm-Gln-Glu-Leu-Arg-Met-Gln-OH (Palmitoyl-QELRMQ-OH; SMILES CCCCCCCCCCCCCCCC(=O)N[C@@H](CCC(N)=O)C(=O)N[C@@H](CCC(=O)O)C(=O)N[C@@H](CC(C)C)C(=O)N[C@@H](CCCNC(=N)N)C(=O)N[C@@H](CCSC)C(=O)N[C@@H](CCC(N)=O)C(=O)O) [DD15015] — lower, 14.07 ± 0.28%
- Palm-Gln-Glu-Met-Arg-Met-Gln-OH (Palmitoyl-QEMRMQ-OH) [DD15003] — within error, 76.38 ± 7.00%

Source: US10799442B2, “Compounds useful in the treatment and/or care of the skin, hair, nails, and/or mucous membranes” (LUBRIZOL ADVANCED MATERIALS, INC., priority 2015, dated 2020)
